Patent US20260201283A1, “SOLVENT COMPOSITION” (Dow Global Technologies LLC, priority 2022, published 2026)
Read-outs that look alike come from different tables or passages of the source.

Experiments:
[1] = Solvency of solvent compositions for Monomer A and Monomer B (height of solid residue); format: physicochemical; conditions: for concentration of monomer in the final solution: in each of the samples with solvency of 100% (NMF, IE1, IE2, IE3, IE4)
Procedure: For every sample, the height of the monomer mixture in the vial was 4 mm. The vials were placed in an oven at 54° C. without agitation for 13 hours. The vials returned to room temperature and were photographed again with the PICA-II instrument. The height of the solid residue was observed. It is considered that the residue (if present) was undissolved Monomer A, undissolved Monomer B, or a mixture thereof. The solvency % of each solvent composition was determined as follows: […]

[2] = at 25° C., literature values as published in Wikipedia, cited from earlier work

SMILES | concentration of monomer in the final solution [1] | Water Solubility [2] | further results
CNC=O [NMF, n-methylformamide, reference compound] |  |  | Solvency (%) ([1]; 0.125 g Monomer A + 0.125 g Monomer B in 2.5 g solvent, 54° C. without agitation for 13 hours, then room temperature): 100%; Quality as solvent for Monomer A and Monomer B ([1]; judgement in words based on Table 4): good solvent
Nc1ccc(-c2ccc(N)cc2C(F)(F)F)c(C(F)(F)F)c1 [Monomer B] | 5 % by weight based on the weight of the solvent composition |  | 
O=C1OC(=O)c2cc(Oc3ccc4c(c3)C(=O)OC4=O)ccc21 [Monomer A] | 5 % by weight based on the weight of the solvent composition |  | 
CCCCOCCOCCO [DBE, diethylene glycol n-butyl ether] |  |  | Water Solubility ([2]; in words): soluble
OCCOc1ccccc1 [POE, 2-phenoxyethanol] |  | 26 g/kg | 
NC(N)=O [Urea] |  | 545 mg/mL | 
